Experimental findings from patent US20130324412A1, “N-ALKOXYAMIDES OF 6-(SUBSTITUTED PHENYL)-4-AMINOPICOLINATES AND 2-(SUBSTITUTED PHENYL)-6-AMINO-4-PYRIMIDINECARBOXYLATES AND THEIR USE AS SELECTIVE HERBICIDES FOR CROPS” (DOW AGROSCIENCES LLC, priority 2009, published 2013) are described below.

SMILES strings stand for the structures.

Common to all, as to type: in vivo
Test [1] deals with lambsquarters (Chenopodium album). Kind of test: General postemergence herbicidal activity, lambsquarters. Conditions: post-emergence, 336 h, 70 g ai/ha, postemergence, after 14 d, 0 = no injury, 100 = complete kill, read-out: CHEAL % Visual Injury. Put shortly: (§1)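 Greenhouse plants at first to second true leaf stage sprayed overhead at 187 L/ha in acetone/DMSO with crop oil concentrate and surfactant, at a high rate plus ½× to 1/16× serial dilutions. Injury rated visually after 14 d against solvent-blank controls, 0 (none) to 100% (complete kill).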

Test [2] relates to wild buckwheat (Polygonum convululus). Kind of test: General postemergence herbicidal activity, wild buckwheat. Conditions: post-emergence, 336 h, 70 g ai/ha, postemergence, after 14 d, 0 = no injury, 100 = complete kill, read-out: POLCO % Visual Injury. Put shortly:
as §1

Another test relates to corn (Zea mays). Kind of test: Postemergence herbicidal activity in corn, crop. Particulars: visual rating after 21 d, probit analysis, dose to kill or control 20 percent. As for the experimental part: Seeds of corn and the desired weed species were planted in Sun Gro MetroMix 360 planting mixture, which typically has a pH of 6.0 to 6.8 and an organic matter content of about 30 percent, in plastic pots with a surface area of 95 cm^2. When required to ensure good germination and healthy plants, a fungicide treatment and/or other chemical or physical treatment was applied. The plants were grown for 7-21 d in a greenhouse with an approximate 15-h photoperiod which was maintained at about 23-29° C. during the day and 22-28° C. during the night. Nutrients and water were added on a regular basis and supplemental lighting was provided with overhead metal halide 1000-Watt lamps as necessary. The corn plants were utilized for testing when they reached the second true leaf stage. The weed species were utilized at the first or second true leaf stage.
A weighed amount, determined by the highest rate to be tested, of each test compound was dissolved in 4 mL of a 97:3 v/v mixture of acetone and DMSO to obtain concentrated stock solutions. […] The concentrated stock solutions obtained were diluted with 20 mL of an aqueous mixture containing acetone, water, isopropyl alcohol, DMSO, Atplus 411F crop oil concentrate, and Triton X-155 surfactant in a 48.5:39:10:1.5:1.0:0.02 v/v ratio to obtain spray solutions containing the highest application rates. […]
The treated plants and control plants were placed in a greenhouse as described above and watered by sub-irrigation to prevent wash-off of the test compounds. After 21 d, the condition of the test plants as compared with that of the untreated plants was determined visually and scored on a scale of 0 to 100 percent where 0 corresponds to no injury and 100 corresponds to complete kill. […]

Regarding `CONC(=O)c1nc(-c2ccc(Cl)c(OC)c2F)cc(N)c1Cl` [Compound 2, 4-Amino-3-chloro-6-(4-chloro-2-fluoro-3-methoxyphenyl)-N-methoxypicolinamide], the pest or weed control at 70 g/ha in test [1] and in test [2] was 100% in each case. In addition, in the test with corn (Zea mays), the “ZEAMX GR20” value is over 35 g ai/ha.
As for `COc1c(Cl)ccc(-c2cc(N)c(Cl)c(C(=O)NOCC(C)C)n2)c1F` [Compound 1, 4-amino-3-chloro-6-(4-chloro-2-fluoro-3-methoxyphenyl)-N-(2-methylpropoxy)picolinamide], the pest or weed control at 70 g/ha in test [1] and in test [2] was 100% each time. Further, the “ZEAMX GR20” value in the test with corn (Zea mays) is given as over 35 g ai/ha.
